Experimental data published in paper PMC3474771, “Evaluation of 14 Organic Solvents and Carriers for Screening Applications in Zebrafish Embryos and Larvae” (PLoS ONE, 2012).
Like-named read-outs stand apart in the source and are kept apart here.

System: zebrafish embryos and larvae
Conditions: for Maximum-tolerated concentration (MTC): highest concentration with no phenotypic abnormalities, followed to 9 dpf; for MTC / tolerated concentration: over all or most developmental stages analyzed, 24-hour exposure
Method: Zebrafish embryos of the AB wild-type strain (originally obtained from the Zebrafish International Resource Center, Eugene, Oregon, USA) were raised at 28°C. Zebrafish husbandry, embryo collection, and embryo and larva maintenance were performed as described, [21]. Toxicity assays were standardly performed in 24-well microtiter plates (wrapped with Parafilm to limit solvent evaporation) using 10 embryos per well in 1 ml of 0.3× Danieau's medium (17 mM NaCl, 2 mM KCl, 0.12 mM MgSO4, 1.8 mM Ca(NO3)2 and 1.5 mM HEPES, pH 7.6). Each experiment was repeated 3 times for a total of 30 embryos or larvae analyzed per solvent per developmental staged tested. Data were only recorded for experiments in which the percentage of normal embryos or larvae in the control group was at least 90%. […] In determining the maximum tolerated concentration (MTC) for each solvent and carrier, all post-exposure embryos and larvae were allowed to develop in larva medium to 9 dpf, so as to detect any deleterious effects appearing after this 24-hour window. Solvents and carriers were obtained from the following suppliers: acetone (Chemlab, Zedelgem, Belgium), acetonitrile (Acros Organics, Geel, Belgium), albumin (BSA, Sigma-Aldrich, Bornem, Belgium), butanone (Riedel-de Haën, Seelze, Germany), cyclodextrin (2- hydroxypropyl-beta-cyclodextrin, Sigma-Aldrich), dimethyl formamide (Acros), DMSO (Agros), ethanol (Fisher Scientific, Doornik, Belgium), glycerol (Acros), isopropanol (Chemlab), methanol (Chemlab), polyethylene glycol-400 (Fluka, Bornem, Belgium), propylene glycol (Certa, Eigenbrakel, Belgium), solketal (Merck, Overijse, Belgium). Statistical analyses were done using chi-square in Microsoft Excel.
Twelve solvents and 2 carriers – chosen based solely on their potential utility for the solubilization and delivery of a structurally diverse range of small molecules – were analyzed for their effects on zebrafish embryos and larvae. The solvents included acetone, acetonitrile, butanone, dimethyl formamide, DMSO, ethanol, glycerol, isopropanol, methanol, polyethylene glycol (PEG-400), propylene glycol, and solketal, and the carriers included albumin (BSA) and cyclodextrin (2-hydroxypropyl-beta-cyclodextrin, or HPBCD). […] For this initial study, the effects of a 24-hour exposure to each solvent and carrier was analyzed using embryos and larvae at the following developmental stages: 2–4 cell, 4 hours-post fertilization (hpf), and 1, 2, 3, 4, and 7 days post-fertilization (dpf).

[1] = exposure for 24 hours beginning at 1 dpf
[2] = exposure for 24 hours beginning at 2 dpf
[3] = exposure for 24 hours beginning at 2–4 cell stage
[4] = exposure for 24 hours beginning at 3 dpf
[5] = exposure for 24 hours beginning at 4 dpf
[6] = exposure for 24 hours beginning at 4 hpf
[7] = exposure for 24 hours beginning at 5 dpf
[8] = exposure for 24 hours beginning at 7 dpf
[9] = exposure from 1 dpf, at the concentration in parentheses
[10] = exposure from 2 dpf, at the concentration in parentheses
[11] = exposure from 3 dpf, at the concentration in parentheses
[12] = 24 hours exposure from 2–4 cell stage
[13] = exposure from 7 dpf, at the concentration in parentheses

Compound | Lowest concentration at which an average penetrance of at least 50% was observed for the phenotypic effects (24 hours exposure from 1 dpf) [%] | Lowest concentration at which an average penetrance of at least 50% was observed for the phenotypic effects (24 hours exposure from 2 dpf) [%] | Lowest concentration at which an average penetrance of at least 50% was observed for the phenotypic effects (24 hours exposure from 3 dpf) [%] | Maximum-tolerated concentration (MTC) [1] [%] | Maximum-tolerated concentration (MTC) [2] [%] | Maximum-tolerated concentration (MTC) [3] [%] | Maximum-tolerated concentration (MTC) [4] [%] | Maximum-tolerated concentration (MTC) [5] [%] | Maximum-tolerated concentration (MTC) [6] [%] | Maximum-tolerated concentration (MTC) [7] [%] | Maximum-tolerated concentration (MTC) [8] [%] | Phenotypic effects above MTC after 24 hours (average penetrance at least 50%) [9] | Phenotypic effects above MTC after 24 hours (average penetrance at least 50%) [10] | Phenotypic effects above MTC after 24 hours (average penetrance at least 50%) [11] | Lowest concentration at which an average penetrance of at least 50% was observed for the phenotypic effects [12] [%] | Lowest concentration at which an average penetrance of at least 50% was observed for the phenotypic effects (24 hours exposure from 4 hpf) [%] | Lowest concentration at which an average penetrance of at least 50% was observed for the phenotypic effects (24 hours exposure from 7 dpf) [%] | also measured
CCC(C)=O [Butanone (MEK), 2-butanone] | 2 | 2.5 | 2 | 1 | 1.5 | 0.5 | 1.5 | 1.5 | 1 | <0.5 | 0.5 | IC MC PE | DD HJ | HJ SB |  |  |  | Maximum-tolerated concentration (MTC) (exposure for 24 hours beginning at 2–4 cell stage, listed as butanone): ≤ 0.5%; Maximum-tolerated concentration (MTC) (exposure for 24 hours beginning at 5 dpf, listed as butanone): ≤ 0.5%; Maximum-tolerated concentration (MTC) (exposure for 24 hours beginning at 7 dpf, listed as butanone): ≤ 0.5%
CC(O)COC[C@H]1O[C@@H]2O[C@H]3[C@H](O)[C@@H](O)[C@@H](O[C@H]4[C@H](O)[C@@H](O)[C@@H](O[C@H]5[C@H](O)[C@@H](O)[C@@H](O[C@H]6[C@H](O)[C@@H](O)[C@@H](O[C@H]7[C@H](O)[C@@H](O)[C@@H](O[C@H]8[C@H](O)[C@@H](O)[C@@H](O[C@H]1[C@H](O)[C@H]2O)O[C@@H]8COCC(C)O)O[C@@H]7COCC(C)O)O[C@@H]6COCC(C)O)O[C@@H]5COCC(C)O)O[C@@H]4COCC(C)O)O[C@@H]3COCC(C)O (stereo partly drawn) [Cyclodextrin (HPBCD), 2-hydroxypropyl-beta-cyclodextrin] |  |  |  | 1 | 1.5 | 1 | 1.5 | 1 | 0.5 | 1.5 | 1 |  |  |  |  |  |  | MTC / tolerated concentration: 1%
CN(C)C=O [Dimethyl formamide (DMF), Dimethyl formamide] | 0.5 | 1 | 1 | <0.5 | 0.5 | 0.5 | 0.5 | 0.5 | <0.5 | 0.5 | <0.5 | AP BH IC IM NB PE | AP HJ PE | HJ IC PE | 1 | 1 | 0.5 | Lowest concentration at which an average penetrance of at least 50% was observed for the phenotypic effects (24 hours exposure from 4 dpf): 1%; Lowest concentration at which an average penetrance of at least 50% was observed for the phenotypic effects (24 hours exposure from 5 dpf): 1.5%; Phenotypic effects above MTC after 24 hours (average penetrance at least 50%) (exposure from 4 dpf, at the concentration in parentheses): AP LP; Phenotypic effects above MTC after 24 hours (average penetrance at least 50%) (exposure from 4 hpf, at the concentration in parentheses): AP BC BS CF PE; Phenotypic effects above MTC after 24 hours (average penetrance at least 50%) (exposure from 5 dpf, at the concentration in parentheses): IM LP PE SB; Phenotypic effects above MTC after 24 hours (average penetrance at least 50%) [13]: HO LP; MTC / tolerated concentration: ≤ 0.5%
CCO [Ethanol, ethanol] | 2 | 2 | 2 | 1 | 1.5 | 1 | 1 | 1.5 | 0.5 | 0.5 | 1 |  |  |  | 1.5 | 1.5 | 1.5 | Lowest concentration at which an average penetrance of at least 50% was observed for the phenotypic effects (24 hours exposure from 4 dpf): 2%; Lowest concentration at which an average penetrance of at least 50% was observed for the phenotypic effects (24 hours exposure from 5 dpf): 2.5%
OCC(O)CO [Glycerol] | 2 | 2 | 2 | 1.5 | 1.5 | 1.5 | 1.5 | 2 | 1.5 | >2.5 | >2.5 |  |  |  | 2.5 | 2 |  | Maximum-tolerated concentration (MTC) (exposure for 24 hours beginning at 5 dpf, listed as glycerol): ≥ 2.5%; Maximum-tolerated concentration (MTC) (exposure for 24 hours beginning at 7 dpf, listed as glycerol): ≥ 2.5%
CC(C)O [Isopropanol, isopropanol] | 1 | 2 | 2 | 0.5 | 1 | 0.5 | 1.5 | 0.5 | 1 | <0.5 | 0.5 | AP IC | IC LP | BC IC IM HJ PE |  | 1.5 | 1 | Phenotypic effects above MTC after 24 hours (average penetrance at least 50%) [13]: IC LP NB PE
CO [Methanol, methanol] |  |  | 2.5 | 1.5 | >2.5 | 1.5 | 2 | 1 | 1.5 | >2.5 | 2 |  |  |  | 2 | 2 | 2.5 | Phenotypic effects above MTC after 24 hours (average penetrance at least 50%) (in vivo): NB LP
